The source of these data is US4613609A, “Antiarrhythmic imidazoliums” (Schering A. G., priority 1984, dated 1986).

In this assay the test system is Canine Purkinje fiber. Kind of assay: In vitro electro-physiological screen using canine Purkinje fibers (action potential characteristics, microelectrode). In kind it is cell-based. The settings on record: for Emax at 10 µM / Emax at 100 µM / Emax at 30 µM: read-out: MaxAPD95: maximum observed effect on APD95 from control value; for EC10: read-out: C10 APD95: concentration of drug which causes a 10% increase or decrease (-) in APD95 from control value; for EC20: read-out: C20 APD95: concentration of drug which causes a 20% increase or decrease (-) in APD95 from control value; for Vmax: change in the rate of rise of phase 0 of the action potential from control value (in words): concentration not given, NE = no effect; for inhibition at 100 µM: at 100 (concentration, μM). As to the method: The primary method for evaluating these compounds as antiarrhythmic agents was an in vitro electro-physiological screen using canine Purkinje fibers. Using conventional microelectrode techniques the effects of the drugs on the action potential characteristics of the Purkinje fiber were measured. Both Class I and Class III antiarrhythmic agents can be disinguished using this method.

Setting [1] is: Canis lupus familiaris, purkinje, at 10 μM, basic cycle length 1000 milliseconds.
Where [2] appears, read: Canis lupus familiaris, purkinje, normal stimulated beat, basic cycle length 1000 milliseconds, NR = not reached.
Where [3] appears, read: Canis lupus familiaris, purkinje, at 10 (concentration, μM), read-out: Vmax: change in the rate of rise of phase 0 of the action potential from control value.
Where [4] appears, read: normal stimulated beat, basic cycle length 1000 milliseconds, NR = not reached.
[5] abbreviates: Canis lupus familiaris, purkinje, basic cycle length 1000 milliseconds.
The mark [6] stands for this setting: Canis lupus familiaris, purkinje.
Setting [7] is: Canis lupus familiaris, purkinje, read-out: Vmax: change in the rate of rise of phase 0 of the action potential from control value.

Where a name gives a salt, the structure may show the parent alone. Read-outs that look alike come from different tables or passages of the source.

Take `Cc1n(CCCCc2ccc(Cl)cc2)cc[n+]1C` [Compound I-34, 1-[4-(4-Chlorophenyl)butyl]-2,3-dimethylimidazolium chloride]: the Emax at 10 µM under setting [1] turned out to be 25%. For the same molecule, under setting [2], the EC10 stood at 1.4 µM and the EC20 worked out at 6 µM.

Consider `CCC[n+]1ccn(CCCCc2ccc(Cl)cc2)c1.O=P([O-])(O)O` [Compound I-16, 1-[4-(4-Chlorophenyl)butyl]-3-propylimidazolium dihydrogenphosphate], for which the Emax at 10 µM under setting [1] worked out at 11%. The EC10 under setting [2] was determined as 6 µM. Moreover, for the setting “at >10 (concentration, μM)”, the “Vmax: change in the rate of rise of phase 0 of the action potential from control value” was -20%.

Turning to `CCCCCCCn1cc[n+](CC(=O)c2ccc(NS(C)(=O)=O)cc2)c1` [Compound I-39, 1-Heptyl-3-[2-[4-[(methanesulfonyl)amino]phenyl]-2-oxoethyl]imidazolium br omide], the Emax at 10 µM under setting [1] was 21%. Further, under setting [2], the EC10 came to 1.7 µM and the EC20 stood at 9 µM.

For the molecule `CCCCCCC[n+]1ccn(CCCCc2ccc(F)cc2)c1` [Compound I-19, 1-[4-(4-Fluorophenyl)butyl]-3-heptylimidazolium dihydrogenphosphate], the Emax at 10 µM under setting [1] is 20%. Also, the inhibition at 10 µM under setting [3] amounted to 6%. Moreover, under setting [2], the EC10 came to 1 µM and the EC20 was 10 µM.

Regarding `CCCCCCCn1cc[n+](CCCCc2ccc(OC)cc2)c1.[Br-]` [Compound I-7], for the setting “at 10 μM, basic cycle length 1000 milliseconds”, the “MaxAPD95: maximum observed effect on APD95 from control value” worked out at 26%. Besides, under “at 10 (concentration, μM), 10 µM”, the “Vmax: change in the rate of rise of phase 0 of the action potential from control value” is -12%. Besides, under setting [4], the EC10 came to 0.5 µM and the EC20 is recorded as 8 µM.

`CS(=O)(=O)Nc1ccc(CCn2ccnc2)cc1` [II-7, N-[4-[2-(1H-Imidazol-1-yl)ethyl]phenyl]methanesulfonamide]: under setting [5], the Emax at 100 µM was 47%. Under setting [2], the EC10 was 2 µM and the EC20 was determined as 10 µM.

For the molecule `CCCCCCC[n+]1ccn(C(C)CCCc2ccc(Cl)cc2)c1` (stereo not shown) [Compound I-25, 1-[4-(4-Chlorophenyl)-1-methylbutyl]-3-heptylimidazolium 4-methylbenzenesulfonate], under setting [6], the EC10 is 10 µM and the Emax at 10 µM amounted to 10%.

For the molecule `CCCCCCCn1cc[n+](CCCCc2ccc(NS(C)(=O)=O)cc2)c1.O=P([O-])(O)O` [Compound I-22, 1-Heptyl-3-[4-[4-[[(methyl)sulfonyl]amino]phenyl]butyl]imidazolium dihydrogenphosphate], the “Vmax: change in the rate of rise of phase 0 of the action potential from control value (in words)” value (“Vmax: change in the rate of rise … (in words)” below) is listed as “Minimal”. Also, the Emax at 10 µM under setting [1] was determined as 39%. Moreover, under setting [2], the EC10 is 1.3 µM and the EC20 is 3 µM.

For the molecule `CS(=O)(=O)Nc1ccc(C(O)Cn2ccnc2)cc1` (stereo not shown) [II-4, N-[4-(1-Hydroxy-2-(1H-imidazol-1-yl)ethyl]phenyl]methanesulfonamide], the Emax at 10 µM under setting [1] amounted to 23%. Besides, the inhibition at 10 µM under setting [3] turned out to be 15%. Under setting [2], the EC10 was found to be 2 µM and the EC20 turned out to be 7 µM.

As to `O=[N+]([O-])c1ccc(CCCCn2ccnc2)cc1` [II-1, 1-[4-(4-Nitrophenyl)butyl]imidazole hydrochloride], the Emax at 10 µM under setting [1] worked out at 27%. For the same molecule, under setting [2], the EC10 came out at 1.2 µM and the EC20 was determined as 4 µM.

Consider `Cc1n(C)cc[n+]1CCCCc1ccc(NS(C)(=O)=O)cc1` [Compound I-30, 1,2-Dimethyl-3-[4-[4-[[methanesulfonyl]amino]phenyl]butyl]imidazolium methanesulfonate], for which the Emax at 10 µM under setting [1] came out at 23%. In addition, under setting [2], the EC10 came out at 1 µM and the EC20 turned out to be 7 µM.

As to `CCCCCCC[n+]1ccn(CCCCc2ccc(NC(C)=O)cc2)c1.Cc1ccc(S(=O)(=O)[O-])cc1` [Compound I-14, 1-[4-(4-(Acetylamino)phenyl)butyl]-3-heptylimidazolium 4-methylbenzenesulfonate], the “Vmax: change in the rate of rise … (in words)” value is “increased”. Moreover, under setting [6], the EC10 worked out at 13 µM, the EC20 was determined as 30 µM and the Emax at 30 µM amounted to 21%.

In the case of `CCCCC[n+]1ccn(CCCCc2ccc(Cl)cc2)c1` [Compound I-20, 1-[4-(4-Chlorophenyl)butyl]-3-pentylimidazolium dihydrogenphosphate], the Emax at 10 µM under setting [1] is 23%. Besides, under setting [2], the EC10 turned out to be 0.8 µM and the EC20 worked out at 6 µM.

For the molecule `C[n+]1ccn(CC(O)c2ccc(NS(C)(=O)=O)cc2)c1` (stereo not shown) [Compound I-38, 1-[2-Hydroxy-2-[4-[(methanesulfonyl)amino]phenyl]ethyl]-3-methylimidazolium iodide], the Emax at 10 µM under setting [1] was found to be 63%. Moreover, under setting [3], the inhibition at 10 µM worked out at 5%. Besides, under setting [2], the EC10 was 0.3 µM and the EC20 was found to be 0.8 µM.

For the molecule `CCCCCCC[n+]1ccn(C/C=C\Cc2ccc(Cl)cc2)c1` [Compound I-42, (Z)-1-[4-(4-Chlorophenyl)-2-butenyl]-3-heptylimidazolium dihydrogenphosphate], the Emax at 100 µM under setting [5] amounted to 12%. Also, under setting [7], the inhibition at 100 µM came out at 26%. Further, the EC10 under setting [2] was determined as 38 µM.

Regarding `Nc1ccc(C(=O)Cn2ccnc2)cc1` [II-5, 1-(4-Aminophenyl)-2-(1H-imidazol-1-yl)ethanone], the “Vmax: change in the rate of rise … (in words)” value is “Minimal”. In addition, the Emax at 10 µM under setting [1] was 13%. The EC10 under setting [2] is 4 µM.

Take `CCCCCCC[n+]1ccn(CCCCc2ccc(Cl)cc2)c1` [Compound I-1, 1-[4-(4-Chlorophenyl)butyl]-3-heptylimidazolium chloride]: the Emax at 30 µM (Canis lupus familiaris, purkinje, at 30 μM, basic cycle length 1000 milliseconds) is 27%. Further, the inhibition at 15 µM (Canis lupus familiaris, purkinje, at 15 (concentration, μM), read-out: Vmax: change in the rate of rise of phase 0 of the action potential from control value) is 20%. Also, the EC10 under setting [2] came out at 12 µM.

Turning to `O=[N+]([O-])c1ccc(C(O)Cn2ccnc2)cc1` (stereo not drawn) [II-6, α-(4-Nitrophenyl)-1H-imidazole-1-ethanol], under setting [5], the Emax at 100 µM amounted to 28%. Moreover, under setting [2], the EC10 was 15 µM and the EC20 came to 43 µM.

Consider `Cn1cc[n+](CC(=O)c2ccc(NS(C)(=O)=O)cc2)c1` [Compound I-44, 1-Methyl-3-[2-[4-((methylsulfonyl)amino)phenyl]-2-oxoethyl]-1H-imidazoliumbromide], for which the Emax at 10 µM under setting [1] was found to be 38%. In addition, under setting [2], the EC10 was 1 µM and the EC20 was 2.3 µM.

With `CS(=O)(=O)Nc1ccc(C(=O)Cn2ccnc2)cc1` [II-2, N-[4-(1H-Imidaz-1-ylacetyl)phenyl]methanesulfonamide], under setting [5], the Emax at 100 µM was 67%. Also, the inhibition at 100 µM under setting [7] came to 15%. Besides, under setting [2], the EC10 came out at 3 µM and the EC20 stood at 14 µM.

As for `CCCCn1cc[n+](CCCCc2ccc(Cl)cc2)c1` [Compound I-21, 1-Butyl-3-[4-(4-chlorophenyl)butyl]imidazolium dihydrogenphosphate], the Emax at 10 µM under setting [1] is 25%. Besides, under setting [2], the EC10 amounted to 2 µM and the EC20 stood at 6 µM.

In the case of `CCCCCCC[n+]1ccn(CCC#Cc2ccc(Cl)cc2)c1` [Compound I-29, 1-[4-(4-Chlorophenyl)-3-butynyl]-3-heptylimidazolium 4-methylbenzenesulfonate], under setting [6], the EC10 came to 20 µM and the Emax at 30 µM came out at 15%. Also, the inhibition at 20 µM under setting [7] amounted to 20%.

As for `Cn1cc[n+](CCc2ccc(NS(C)(=O)=O)cc2)c1` [Compound I-43, 1-Methyl-3-[2-[4-((methylsulfonyl)amino)phenyl]ethyl]-1H-imidazolium iodide], under setting [1], the Emax at 10 µM was found to be 21%. In addition, under setting [2], the EC10 amounted to 2 µM and the EC20 worked out at 8 µM.

`O=C(Cn1ccnc1)c1ccc([N+](=O)[O-])cc1` [II-3, 2-(1H-Imidaz-1-yl)-1-(4-nitrophenyl)ethanone hydrochloride]: the Emax at 100 µM under setting [5] is 29%. In addition, under setting [2], the EC10 worked out at 20 µM and the EC20 was 50 µM.

Consider `O=[N+]([O-])c1ccc(CCn2ccnc2)cc1` [II-8, 1-[2-(4-Nitrophenyl)ethyl]-1H-imidazole hydrochloride], for which the Emax at 100 µM under setting [5] turned out to be 29%. Also, under “Canis lupus familiaris, purkinje, at 0.1 (concentration, μM), read-out: Vmax: change in the rate of rise of phase 0 of the action potential from control value”, the inhibition at 0.1 µM was 15%. For the same molecule, under setting [2], the EC10 amounted to 7 µM and the EC20 was 30 µM.
